Measurements taken from patent US5364615A (priority 1992, dated 1994).

Experiments:
[1] = Delivery efficiency, nebulizer retention and lung half-life of aerosolized pentamidine; set-up: species or system human
Description: As indicated above, Pneumocystis carinii infect the alveoli. […] It should also be understood that the amount of pentamidine deposited in the alveoli may be substantially less than the total amount aerosolized since a large portion is exhaled by the patient or is trapped on the interior surfaces of the nebulizer apparatus. […] This is true regardless of the dose size, duration of inhalation, and type of nebulizer used, Respirgard or Ultravent. […] Furthermore, even with minimization of airway deposition, there is a portion which is still deposited in the patient's airways.
The "amount nebulized" or "amount aerosolized" of the drug means the amount that actually leaves the apparatus as an aerosol, i.e., the amount placed into the apparatus less the amount retained in the reservoir and on the inner surfaces of the apparatus at the conclusion of a treatment session. "[…] of pentamidine delivered to the alveoli" refers to the amount of drug that is estimated to actually reach the alveoli.

[2] = test system: Pneumocystis carinii; experiment: Post-exposure prophylaxis of PCP (Example 5); format: in vivo, human; conditions: for Percent Alive & Free of Relapse: 300 mg once per month
Description: Within 30 days of initiation of prophylaxis, ten patients were omitted due to treatment (9) or relapse (1). Of the 93 patients, 48 had had at least one previous episode of PCP. Two-thirds of the patients were taking AZT at the onset and throughout the duration of the post-exposure prophylaxis. The median and maximum duration of treatment at the time of analysis was 3.1 and 5.2 months.

## N=C(N)c1ccc(OCCCCCOc2ccc(C(=N)N)cc2)cc1 [pentamidine, p,p'-(pentamethylenedioxy)dibenzamidine]
[1]; 300 mg placed in nebulizer, estimate
  amount delivered to the alveoli: about 21 mg
[1]; 600 mg in 6 mL, Respirgard II, 3-4 mL nebulized, estimate
  absorbed dose: 45 to 60 mg
[1]; 600 mg placed in nebulizer, estimate
  amount delivered to the alveoli: about 42 mg
[1]; Respirgard or UltraVent, regardless of dose
  dose remaining in the nebulizer after inhalation: approximately one third of the pentamidine dose that is placed into the nebulizer remains in the nebulizer
[1]; estimate based on Mallinckrodt technical specifications
  fraction of total dose delivered to the alveoli: about 7%
[1]; human, lung, inhaled or intranasal, read-out: halflife in the lungs
  half-life: 21 to 42 days
[1]; to alveoli, estimate
  efficiency of delivery by inhalation: 7-10%
[2]; 300 mg by inhalation once monthly, based on historical controls
  reduction in the incidence of PCP: 5 fold
[2]; 0.0 months
  Percent Alive & Free of Relapse: 100.0%
[2]; 2.3 months
  Percent Alive & Free of Relapse: 98.57%
[2]; 2.5 months
  Percent Alive & Free of Relapse: 97.12%
[2]; 2.9 months
  Percent Alive & Free of Relapse: 95.53%
[2]; 3.0 months
  Percent Alive & Free of Relapse: 93.85%
[2]; 3.1 months
  Percent Alive & Free of Relapse: 92.08%
[2]; 3.7 months
  Percent Alive & Free of Relapse: 89.78%
[2]; 5.2 months
  Percent Alive & Free of Relapse: 79.81%
[2]; single prior episode of PCP
  delay of relapse: at least 5 months
[2]; single prior episode, vs 10 based on 132 historical controls, p<0.01
  observed PCP cases: 3
